Consider 24 compounds from patent US20140135319A1, “6-SUBSTITUTED IMIDAZOPYRAZINES FOR USE AS MPS-1 AND TKK INHIBITORS IN THE TREATMENT OF HYPERPROLIFERATIVE DISORDERS” (BAYER INTELLECTUAL PROPERTY GMBH, priority 2010, published 2014).

This assay has as its target T1, human kinase Mps-1 (Homo sapiens, UniProt P33981).
T1 construct: N-terminally GST-tagged human full length recombinant Mps-1 kinase; GST (N); purchased Invitrogen, Karslruhe, Germany PV4071
T1 sequence (P33981 1-857): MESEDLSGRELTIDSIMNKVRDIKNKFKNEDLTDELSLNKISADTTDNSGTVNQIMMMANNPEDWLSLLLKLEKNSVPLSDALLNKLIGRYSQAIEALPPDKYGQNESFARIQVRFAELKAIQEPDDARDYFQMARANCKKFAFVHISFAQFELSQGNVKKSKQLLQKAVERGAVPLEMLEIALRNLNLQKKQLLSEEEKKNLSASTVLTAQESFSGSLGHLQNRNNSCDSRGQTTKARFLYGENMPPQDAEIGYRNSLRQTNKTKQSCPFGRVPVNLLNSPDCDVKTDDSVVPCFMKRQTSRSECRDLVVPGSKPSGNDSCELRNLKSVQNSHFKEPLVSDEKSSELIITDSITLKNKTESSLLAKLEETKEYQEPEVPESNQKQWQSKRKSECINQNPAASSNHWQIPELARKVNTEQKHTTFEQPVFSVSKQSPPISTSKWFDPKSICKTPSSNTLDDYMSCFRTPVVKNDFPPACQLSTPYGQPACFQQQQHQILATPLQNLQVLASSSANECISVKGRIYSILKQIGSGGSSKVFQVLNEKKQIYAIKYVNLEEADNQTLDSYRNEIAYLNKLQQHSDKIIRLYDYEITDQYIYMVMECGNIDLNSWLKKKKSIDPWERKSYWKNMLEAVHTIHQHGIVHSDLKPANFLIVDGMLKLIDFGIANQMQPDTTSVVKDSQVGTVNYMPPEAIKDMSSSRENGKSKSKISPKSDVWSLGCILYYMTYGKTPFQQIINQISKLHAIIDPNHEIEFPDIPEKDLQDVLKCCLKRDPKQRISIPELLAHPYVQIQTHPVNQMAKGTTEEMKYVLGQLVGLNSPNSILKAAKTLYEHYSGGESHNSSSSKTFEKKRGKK
The assay is described as follows: Mps-1 kinase assay (TR-FRET). The class given is biochemical. Conditions: GST-tagged human full length recombinant Mps-1; 10 μM ATP; 1 μM peptide substrate; 60 min at 22° C. The gist of the method:
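N-terminally GST-tagged full-length recombinant human Mps-1, about 1 nM final, phosphorylates a biotinylated peptide. Product detected by TR-FRET from Eu-anti-phospho-Ser/Thr antibody to streptavidin-XLent after 1 h at 22° C.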
On the technique in general: Time-resolved FRET reads energy transfer from a long-lived donor to a nearby acceptor.
By IC50 is commonly meant the concentration needed to halve the response being measured. As to `O=C(NC1CC1)c1ccc(-c2cnc3c(NCC(O)C(F)(F)F)nc(-c4ccncc4)cn23)cc1` (stereo not drawn) [Example 3-21, N-cyclopropyl-4-{6-(pyridin-4-yl)-8-[(3,3,3-tri-fluoro-2-hydroxypropyl)amino]imidazo[1,2-a]pyrazin-3-yl}benzamide], the concentration for half-maximal inhibition (IC50) is 1.6 nM.

On to `O=C(NC1CC1)c1ccc(-c2cnc3c(NCCC(F)(F)F)nc(-c4ccncc4)cn23)cc1` [Example 3-22, N-cyclopropyl-4-{6-(pyridin-4-yl)-8-[(3,3,3-trifluoropropyl)amino]imidazo[1,2-a]pyrazin-3-yl}benzamide], for which the half-maximal inhibitory concentration (IC50) turned out to be 1.1 nM.

For the compound `CC(O)CNc1nc(-c2ccncc2)cn2c(-c3ccc(C(=O)NC4CC4)cc3)cnc12` (stereo not drawn) [Example 3-23, N-cyclopropyl-4-{8-[(2-hydroxypropyl)amino]-6-(pyrdin-4-yl)imidazo [1,2-a]pyrazin-3-yl} benzamide], the IC50 was determined as 8 nM.

Regarding `COCCCNc1nc(-c2ccncc2)cn2c(-c3ccc(C(=O)NC4CC4)cc3)cnc12` [Example 3-24, N-cyclopropyl-4-{8-[(3-methoxypropyl)amino]-6-(pyridin-4-yl)imidazo [1,2-a]pyrazin-3-yl} benzamide], the IC50 was 5.5 nM.

As for `C[S+]([O-])CCNc1nc(-c2ccncc2)cn2c(-c3ccc(C(=O)NC4CC4)cc3)cnc12` (stereo not drawn) [Example 3-25, N-cyclopropyl-4-[8-{[2-(methylsulfinyl)ethyl]amino}-6-(pyridin-4-yl)imidazo[1,2-a]pyrazin-3-yl]benzamide], the IC50 was found to be 19.6 nM.

`O=C(NC1CC1)c1ccc(-c2cnc3c(NCC(F)F)nc(-c4ccncc4)cn23)cc1` [Example 3-26, N-cyclopropyl-4-{8-[(2,2-difluoroethyl)amino]-6-(pyridin-4-yl)imidazo [1,2-a]pyrazin-3-yl} benzamide]: the IC50 turned out to be 5.4 nM.

`Cn1ccc(CNc2nc(-c3ccncc3)cn3c(-c4ccc(C(=O)NC5CC5)cc4)cnc23)n1` [Example 3-27, N-cyclopropyl-4-[8-{[(1-methyl-1H-pyrazol-3-yl)methyl]amino}-6-(pyridin-4-yl)imidazo [1,2-a]pyrazin-3-yl] benzamide]: the half-maximal inhibitory concentration (IC50) worked out at 9.8 nM.

On to `Cn1nccc1CNc1nc(-c2ccncc2)cn2c(-c3ccc(C(=O)NC4CC4)cc3)cnc12` [Example 3-28, N-cyclopropyl-4-[8-{[(1-methyl-1H-pyrazol-5-yl)methyl]amino}-6-(pyridin-4-yl)imidazo [1,2-a]pyrazin-3-yl] benzamide], for which the concentration for half-maximal inhibition (IC50) came to 2.8 nM.

Take `Cn1cc(CNc2nc(-c3ccncc3)cn3c(-c4ccc(C(=O)NC5CC5)cc4)cnc23)cn1` [Example 3-29, N-cyclopropyl-4-[8-{[(1-methyl-1H-pyrazol-4-yl)methyl]amino}-6-(pyridin-4-yl)imidazo [1,2-a]pyrazin-3-yl] benzamide]: the half-inhibitory concentration (IC50) was 5.6 nM.

As to `CCOC(C)CNc1nc(-c2ccncc2)cn2c(-c3ccc(C(=O)NC4CC4)cc3)cnc12` (stereo not drawn) [Example 3-30, N-cyclopropyl-4-{8-[(2-ethoxypropyl)amino]-6-(pyridin-4-yl)imidazo [1,2-a]pyrazin-3-yl} benzamide], the IC50 was 7.1 nM.

Regarding `O=C(NC1CC1)c1ccc(-c2cnc3c(NCc4ccc(Cl)s4)nc(-c4ccncc4)cn23)cc1` [Example 3-31, 4-[8-{[(5-chlorothiophen-2-yl)methyl]amino}-6-(pyridin-4-yl)imidazo [1,2-a]pyrazin-3-yl]-N-cyclopropylbenzamide], the concentration for half-maximal inhibition (IC50) was found to be 2.3 nM.

Consider `CS(=O)(=O)CCCNc1nc(-c2ccncc2)cn2c(-c3ccc(C(=O)NC4CC4)cc3)cnc12` [Example 3-32, N-cyclopropyl-4-[8-{[3-(methylsulfonyl)propyl]amino}-6-(pyridin-4-yl)imidazo[1,2-a]pyrazin-3-yl]benzamide], for which the 50% inhibitory concentration (IC50) was 21.5 nM.

Turning to `O=C(NC1CC1)c1ccc(-c2cnc3c(NCCCF)nc(-c4ccncc4)cn23)cc1` [Example 3-33, N-cyclopropyl-4-{8-[(3-fluoropropyl)amino]-6-(pyridin-4-yl)imidazo [1,2-a]pyrazin-3-yl} benzamide], the half-maximal inhibitory concentration (IC50) is 3.2 nM.

Consider `O=C(NC1CC1)c1ccc(-c2cnc3c(NCCc4nccs4)nc(-c4ccncc4)cn23)cc1` [Example 3-34, N-cyclopropyl-4-[6-(pyridin-4-yl)-8-{[2-(1,3-thiazol-2-yl)ethyl]amino}imidazo[1,2-a]pyrazin-3-yl]benzamide], for which the half-inhibitory concentration (IC50) was 8.2 nM.

Consider `NS(=O)(=O)CCNc1nc(-c2ccncc2)cn2c(-c3ccc(C(=O)NC4CC4)cc3)cnc12` [Example 3-35, N-cyclopropyl-4-{6-(pyridin-4-yl)-8-[(2-sulfamoylethyl)amino]imidazo [1,2-a]pyrazin-3-yl} benzamide], for which the IC50 is 1.9 nM.

Turning to `O=C(NC1CC1)c1ccc(-c2cnc3c(NCC4CCCCO4)nc(-c4ccncc4)cn23)cc1` (stereo not drawn) [Example 3-36, N-cyclopropyl-4-{6-(pyridin-4-yl)-8-[(tetrahydro-2H-pyran-2-ylmethyl)amino]imidazo[1,2-a]pyrazin-3-yl} benzamide], the IC50 was determined as 3.5 nM.

Regarding `O=C(NC1CC1)c1ccc(-c2cnc3c(NC[C@@H](O)CO)nc(-c4ccncc4)cn23)cc1` [Example 3-37, N-cyclopropyl-4-{8-[(2,3-dihydroxypropyl)amino]-6-(pyridin-4-yl)imidazo [1,2-a]pyrazin-3-yl}benzamide], the IC50 is 19.3 nM.

For `Cc1cc(-c2cnc3c(NC[C@H](O)C(F)(F)F)nc(-c4ccnn4C)cn23)ccc1C(=O)NC1CC1` [Example 3-38, N-cyclopropyl-2-methyl-4-{6-(1-methyl-1H-pyrazol-5-yl)-8-[(3,3,3-trifluoro-2-hydroxypropyl)amino]imidazo[1,2-a]pyrazin-3-yl}benzamide], the IC50 is 7.2 nM.

On to `C=CCNc1nc(-c2ccccc2)cn2c(-c3ccc(C(=O)NC4CC4)cc3)cnc12` [Example 3-39, 4-[8-(Allylamino)-6-phenylimidazo[1,2-a]pyrazin-3-yl]-N-cyclopropylbenzamide], for which the half-maximal inhibitory concentration (IC50) amounted to 3.6 nM.

With `C=C(C)CNc1nc(-c2ccccc2)cn2c(-c3ccc(C(=O)NC4CC4)cc3)cnc12` [Example 3-40, N-Cyclopropyl-4-{8-[(2-methylprop-2-en-1-yl)amino]-6-phenylimidazo[1,2-a]pyrazin-3-yl}benzamide], the concentration for half-maximal inhibition (IC50) was determined as 3.7 nM.

Take `O=C(NC1CC1)c1ccc(-c2cnc3c(NCCOCC4CCCO4)nc(-c4ccccc4)cn23)cc1` (stereo not drawn) [Example 3-41, N-cyclopropyl-4-(6-phenyl-8-{[2-(tetrahydrofuran-2-ylmethoxy)ethyl]amino}imidazo[1,2-a]pyrazin-3-yl)benzamide]: the half-maximal inhibitory concentration (IC50) is 20.4 nM.

With `O=C(NC1CC1)c1ccc(-c2cnc3c(NCCCOCC4COCO4)nc(-c4ccccc4)cn23)cc1` (stereo not drawn) [Example 3-42, N-cyclopropyl-4-(8-{[3-(1,3-dioxolan-4-ylmethoxy)propyl]amino}-6-phenylimidazo[1,2-a]pyrazln-3-yl)benzamide], the half-inhibitory concentration (IC50) amounted to 5.1 nM.

Take `O=C(NC1CC1)c1ccc(-c2cnc3c(NCCOCCOCCO)nc(-c4ccccc4)cn23)cc1` [Example 3-43, N-cyclopropyl-4-[8-({2-[2-(2-hydroxyethoxy)ethoxy]ethyl}amino)-6-phenylimidazo[1,2-a]pyrazin-3-yl]benzamide]: the half-inhibitory concentration (IC50) was determined as 17.8 nM.

As for `C=CCOC(=O)CCCNc1nc(-c2ccccc2)cn2c(-c3ccc(C(=O)NC4CC4)cc3)cnc12` [Example 3-44, Allyl 4-({3-[4-(cyclopropylcarbamoyl)phenyl]-6-phenylimidazo[1,2-a]pyrazin-8-yl}amino)butanoate], the 50% inhibitory concentration (IC50) worked out at 14.2 nM.
